# Values quoted from earlier work in patent US20260137644A1, “COMPOSITIONS INCLUDING CAFFEIC ACID PHENETHYL ESTER” (XMK THERAPEUTICS INC., priority 2022, published 2026).
# How the values were obtained:
# [1] = system: carrageenin-induced inflammation
# NFAT = conditions: Jurkat cells
smiles,measurement,setting,value
"O=C(/C=C/c1ccc(O)c(O)c1)OCCc1ccccc1 [CAPE, 2-phenylethyl (E)-3-(3,4-dihydroxyphenyl)prop-2-enoate]",antimicrobial activity,Enterococcus faecalis,active
same,antimicrobial activity,Listeria monocytogenes,active
same,exudate volume,[1],suppresses
same,leukocytes relocation,[1],suppresses
same,interleukin-2 (IL-2) gene transcription and synthesis,interleukin-2 (IL-2),inhibition
same,antimicrobial activity,Staphylococcus aureus,active
same,antimicrobial activity,Haemophilus influenzae,active
same,binding with DNA and transcriptional activity of NFAT,NFAT,inhibition
